Measured values reported in US20070292895A1, “Assays and methods to detect beta-secretase and its activity in body fluids and tissue extracts” (priority 2006, published 2007).
Non-standard residues stand in square brackets, D forms with d. Residues, ends and D or L forms follow the SMILES beside them. *: point of attachment. Sta = CC(C)C[C@H](N)[C@@H](O)CC(=O)O; Isovaleryl = CC(C)CC(=O)*

Columns and labels:
BACE-1 = target: T1, BACE-1 (Mus musculus, UniProt P56818); assay: Brain BACE-1 activity assay, brain membrane extract, coumarin-labeled 10-mer substrate, HPLC detection; assay type: biochemical; conditions: E64 at 10 μM; membrane preparations from WT mice
T1 construct: a brain membrane extract containing endogenous BACE-1; from tissue; host or cells: mouse brain membrane preparation (wild-type mice)
Experimental: (§1) Brain BACE-1 enzymatic activity was measured using brain membrane extracts in a two-step method. In the first reaction step, a brain membrane extract containing endogenous BACE-1 is reacted with a coumarin labeled 10-mer peptide substrate in the presence of non-specific protease inhibitor cocktail and aspartyl protease inhibitor Pepstatin A. In a second detection step, an HPLC-based detection method is used to determine the extent of enzymatic cleavage of the 10-mer substrate.
(§2) Brain membranes are prepared as follows. Mice brain sections are homogenized in 10× w/v 50 mM MES buffer with protease inhibitor (Roche Applied Science, Indianapolis, Ind., Cat#11836145), pH 6.0 using a glass/Teflon homogenizer, using about 10 strokes. The homogenates are then spun at 2000 rpm (900×g) at 4° C. for 10 minutes. […] Protein concentration is determined using modified Bradford method (DC protein assay kit Cat#500-0114, Bio-Rad Laboratories, Hercules, Calif.). […]
(§3) In the second step, the BACE-1 cleavage product is detected. The resulting mixture is then chromatographed in a Waters Alliance HT HPLC system (Waters 2790, Waters Corporation, Milford, Mass.) to detect product and substrate fluorescence as follows. […]
(§4) The amount of cleaved product and substrate are detected with excitation at 340 nm and emission at 440 nm.

BACE-1 activity in CSF = assay: CSF BACE-1 activity with combinations of protease inhibitors (FIG. 9); assay type: biochemical; conditions: Merck-3 at 10 μM; Pepstatin A 10 μM present
Experimental: (§5) This example illustrates a method for solution based detection of BACE-1 activity in cerebral spinal fluid (CSF). BACE-1 enzymatic activity in CSF was measured using a two-step method. In the first step, cleavage of a biotinylated peptide substrate is accomplished using CSF as the source of BACE-1 enzyme. In the second step, the extent of enzymatic cleavage of substrate is detected using an avidin-biotin complex and enzyme linked immunosorbent assay (ELISA).
(§6) In the peptide substrate cleavage step, 25 μL of either purified recombinant baculovirus expressed BACE-1(aa1-460) at a range of concentration from 0.8 pM to 100 pM or rhesus or human CSF is added to the wells of a 96 well assay plate (COSTAR brand, Cat#3365). […]
(§7) In the second step, the product of BACE-1 enzymatic cleavage of the biotin-labeled peptide is measured by ELISA. […]
(§8) Afterwards, the plate is washed three times with PBST. […] The reaction is finally developed using 100 μL/well of CDP-STAR ready-to-use with HRP substrate (EMD Biosciences, Inc. San Diego, Calif.) or SAPPHIRE-II Enhancer substrate (Applied Biosystems, Foster City, Calif., Cat# T2214) for 30 minutes at room temperature. Absorbance or Luminescence counts, respectively, are measured in LJL-Analyst (Molecular Devices Corp., Sunnyvale, Calif.). […]

[1] = tested on: non-specific aspartyl protease activity; assay: Non-specific aspartyl protease activity in brain membrane preparations, same HPLC cleavage assay; assay type: biochemical, mouse; conditions: membrane preparations from WT mice
Experimental: as §1, §2, §3, §4

[2] = tested on: non-specific aspartyl protease activity; assay: Non-specific aspartyl protease activity in CSF (FIG. 9); assay type: biochemical; conditions: Pepstatin A 10 μM; this activity was about 59% of the protease activity in CSF
Experimental: as §5, §6, §7, §8

T1 sequence (P56818 46-501): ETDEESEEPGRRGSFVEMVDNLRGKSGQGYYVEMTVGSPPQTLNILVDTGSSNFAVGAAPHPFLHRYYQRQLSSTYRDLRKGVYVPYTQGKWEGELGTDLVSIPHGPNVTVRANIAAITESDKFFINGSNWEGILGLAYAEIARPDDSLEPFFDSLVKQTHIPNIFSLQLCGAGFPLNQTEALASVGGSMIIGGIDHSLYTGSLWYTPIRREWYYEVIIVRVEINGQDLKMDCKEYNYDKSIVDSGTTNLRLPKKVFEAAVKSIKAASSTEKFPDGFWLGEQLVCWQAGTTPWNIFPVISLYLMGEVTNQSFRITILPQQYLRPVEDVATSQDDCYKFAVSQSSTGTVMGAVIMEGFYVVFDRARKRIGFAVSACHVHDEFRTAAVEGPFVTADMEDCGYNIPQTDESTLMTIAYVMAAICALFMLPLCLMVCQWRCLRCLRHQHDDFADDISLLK

CC(C)C[C@H](NC(=O)[C@H]1O[C@@H]1C(=O)O)C(=O)NCCCCN=C(N)N [E64]
effect on cleavage of substrate (FIG. 4) (BACE-1): no effect on cleavage of substrate

C[C@@H](NC(=O)c1cc(C(=O)N[C@@H](Cc2ccccc2)[C@H](O)CNC2CC2)cc(N(C)S(C)(=O)=O)c1)c1ccccc1 [Merck-3]
BACE-1 activity in CSF remaining after Pepstatin A (FIG. 9) (BACE-1 activity in CSF): completely abolished

CC(C)CC(=O)N[C@H](C(=O)N[C@H](C(=O)N[C@@H](CC(C)C)[C@@H](O)CC(=O)N[C@@H](C)C(=O)N[C@@H](CC(C)C)[C@@H](O)CC(=O)O)C(C)C)C(C)C [Pepstatin A, pepstatin A] (Isovaleryl-VV[Sta]A[Sta]-OH)
non-specific aspartyl protease activity (FIG. 4) [1]: abolished
non-specific aspartyl protease activity in CSF (FIG. 9) [2]: abolished
